The compounds below were run against T1, Bifunctional epoxide hydrolase 2 (Homo sapiens, UniProt P34913) (assay: sEH inhibitor concentration-response potency, dose response, biochemical, human sEH, fluorescence, Infinite200 (AID 1026)).
T1 sequence (P34913 whole entry): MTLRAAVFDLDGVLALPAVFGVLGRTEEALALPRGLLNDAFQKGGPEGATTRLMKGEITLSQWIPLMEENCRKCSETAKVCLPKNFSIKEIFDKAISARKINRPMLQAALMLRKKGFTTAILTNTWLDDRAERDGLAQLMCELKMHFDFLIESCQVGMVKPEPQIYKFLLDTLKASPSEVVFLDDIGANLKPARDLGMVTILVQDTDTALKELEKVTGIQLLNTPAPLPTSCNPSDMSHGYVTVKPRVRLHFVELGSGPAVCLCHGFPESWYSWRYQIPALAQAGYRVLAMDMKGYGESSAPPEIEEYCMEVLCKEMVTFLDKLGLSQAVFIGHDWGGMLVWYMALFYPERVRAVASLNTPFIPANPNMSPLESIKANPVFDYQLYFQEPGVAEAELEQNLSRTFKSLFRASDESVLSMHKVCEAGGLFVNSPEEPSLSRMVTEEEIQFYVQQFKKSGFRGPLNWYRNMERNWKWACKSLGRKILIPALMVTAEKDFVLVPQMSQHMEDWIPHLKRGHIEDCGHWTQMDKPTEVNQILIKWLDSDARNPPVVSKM

| IC50 | SMILES |
| --- | --- |
| > 10000 nM | CCN(CC)S(=O)(=O)c1ccc(N=C2NS(=O)(=O)c3ccccc32)cc1 [4-(1,1-Dioxo-1H-1lambda*6*-benzo[d]isothiazol-3-ylamino)-N,N-diethyl-benzenesulfonamide] |
| 24.4 nM | O=C(CCCOc1ccc(Cl)cc1Cl)NN=CC1CCCCC1 |
| 19.8 nM | Cc1cc(NS(=O)(=O)c2ccc(Nc3nc(-c4sc(NC(=O)c5ccccc5)nc4C)cs3)cc2)no1 [MLS000523248] |
| 70.5 nM | Cc1ccc(NC(=O)NC2CCCCC2)cc1Cl [1-(3-chloranyl-4-methyl-phenyl)-3-cyclohexyl-urea] |
| > 10000 nM | CC(C)CN(C#N)c1nc(N2CCOCC2)nc(N2CCOCC2)n1 [(4,6-dimorpholin-4-yl-1,3,5-triazin-2-yl)-(2-methylpropyl)cyanamide] |
| 82.8 nM | CCOC(=O)c1sc(NC(=O)c2ccc(Cl)s2)cc1C [5-[(5-chlorothiophene-2-carbonyl)amino]-3-methyl-thiophene-2-carboxylic acid ethyl ester] |
| > 10000 nM | CCOC(=O)CSc1ccc(-c2nc3cc(C)c(C)cc3[nH]2)cn1 [SMR000122535] |
| > 10000 nM | Cc1ccccc1NC(=S)NCCC(c1ccccc1)c1ccccc1 [1-(3,3-diphenylpropyl)-3-(2-methylphenyl)thiourea] |
| > 10000 nM | CC(C)(C)c1ccc(S(=O)(=O)N2CCC(c3nc4cc(Cl)ccc4[nH]3)CC2)cc1 [2-[1-(4-tert-butylphenyl)sulfonylpiperidin-4-yl]-6-chloranyl-1H-benzimidazole] |
| > 10000 nM | Clc1ccc(CON=CNc2ncnc3sccc23)cc1 [N-[(4-chlorophenyl)methoxy]-N'-thieno[2,3-d]pyrimidin-4-yl-methanimidamide] |
| > 10000 nM | O=C1Nc2ccc(S(=O)(=O)N3CCOCC3)c3cccc1c23 [6-(4-morpholinylsulfonyl)-1H-benzo[cd]indol-2-one] |
| > 10000 nM | COc1ccc(Cn2ccc(=O)c(Cc3c(Cl)cccc3Cl)c2C)cc1 [3-(2,6-dichlorobenzyl)-1-(4-methoxybenzyl)-2-methyl-4(1H)-pyridinone] |
| 63.1 nM | CCOC(=O)c1sc(NC(=O)Nc2ccc(Cl)cc2)cc1C [5-[(4-chlorophenyl)carbamoylamino]-3-methyl-thiophene-2-carboxylic acid ethyl ester] |
| > 10000 nM | Cc1cc(Cl)c(OCCCNCc2ccccc2)c(Br)c1 [3-(2-bromanyl-6-chloranyl-4-methyl-phenoxy)-N-(phenylmethyl)propan-1-amine;ethanedioic acid] |
| > 10000 nM | c1ccc(CCN=C2NCCCS2)cc1 [5,6-dihydro-4H-1,3-thiazin-2-yl(phenethyl)amine] |

| SMILES | IC50 |
| --- | --- |
| COc1ccc(S(=O)(=O)N2C3CCC2CC(NC(=O)NC2CCCCC2)C3)cc1 (stereo not drawn) [1-Cyclohexyl-3-[8-(4-methoxy-benzenesulfonyl)-8-aza-bicyclo[3.2.1]oct-3-yl]-urea] | 39.4 nM |
| CCOC(=O)C(O)(c1ccc(NC(=O)NC2CCCCC2)cc1)C(F)(F)F (stereo not drawn) [2-[4-(cyclohexylcarbamoylamino)phenyl]-3,3,3-trifluoro-2-hydroxy-propionic acid ethyl ester] | 121 nM |
| COC(=O)c1ccc(S(=O)(=O)N2C3CCC2CC(NC(=O)NC2CCCCC2)C3)cc1 (stereo not drawn) [4-[3-(3-Cyclohexyl-ureido)-8-aza-bicyclo[3.2.1]octane-8-sulfonyl]-benzoic acid methyl ester] | 8.9 nM |
